According to patent EP2802310B1, “NEW USE OF ZERUMBONE AND COMPOSITIONS COMPRISING ZERUMBONE” (Sederma, priority 2012, dated 2013):
Where two headings read alike, the source gives them in different places.

Tests used:
[1] = system: adiponectin; test: Adiponectin synthesis by ELISA, 3 days contact; assay type: cell-based, Human
Protocol: Human preadipocytes were plated and induced to differentiate at confluence in the presence of a cocktail of specific inducers. After 10 days of differentiation, the cells are purged from inducers in their basis medium and left in contact with the products for 3 days in this medium. After contact, the supernatants were collected and the adiponectin amount was measured by ELISA.

[2] = system: HO-1; test: HO-1 synthesis by ELISA in adipocyte lysates; assay type: cell-based, Human; conditions: for activation at 3 ppm / activation at 5 ppm: Homo sapiens, Adipocyte, read-out: [HO-1] % Var / control
Protocol: HO-1 enzymes catalyse the degradation of heme into biliverdin, iron, and carbon monoxide. Its overexpression is associated with a decrease in the size of adipocytes in adipose tissue, an increase of adiponectin secretion and a decrease of IL-6 and TNF secretion and is associated with weight loss.
Human preadipocytes were seeded and induced to differentiate at confluence in the presence of a cocktail of specific inducers and the products to evaluate. After 10 days, the layers were crushed and the HO-1 content was measured in these lysates by ELISA. Furthermore after 10 days of differentiation, matiure adipocytes were placed in contact with the products for 48h and the HO-1 content was also measured in the cellular lysates. In parallel, an estimation of the cell quantification is realized on these two assays (Hoechst test).

[3] = system: Mature human adipocytes; test: Lipolytic effect, released glycerol after 3 hours; assay type: cell-based; conditions: Adipocyte, Zerumbone 6ppm, contact time 3h, read-out: released glycerol, versus negative control
Protocol: In a first test, mature human adipocytes were treated with the product to evaluate for 3 hours, then titration of the released glycerol, reflecting lipolysis, was measured in the medium.

[4] = system: collagenase; test: Dermal destruction by proteases in skin explants, collagenase; conditions: 18ppm of zerumbone co-injected with the protease; five days at 37°C; confocal microscope
Protocol: Principle: Once prepared, skin explants (person, abdominal skin) received an injection of elastase or collagenase that could proteolyse 30 µmol/min of elastin or collagen. In another case, the invention product (titrated at 18ppm of zerumbone) was co-injected with the protease to assess its ability to inhibit the proteolysis of constituents of the dermis, and thus of protection of the dermis. After five days of incubation at 37°C, the result was observed through a confocal microscope and compared to what was obtained in the case without protease at the same depth (60 µm).

[5] = system: Cathepsin-S; test: Cathepsin-S in NHF under NO stress, ELISA; assay type: cell-based, human; conditions: NO stress (NOC-5)
Protocol: Principle: NHFs were put into contact with the invention product for 24h then were subjected to NO stress. NO donor, NOC-5, was introduced in the culture medium. At the end of a second 24h contact with the zerumbone extract, a cathepsin-S assay was performed using ELISA. At the same time, the number of cells was quantified using the Hoechst method.

[6] = system: elastin; test: Elastin fibres in skin explants under NO stress (Verhoeff stain); conditions: 18 ppm
Protocol: Principle: Explants (person, abdominal skin) received a topical cream containing the product of the invention (cream according to above example 1 at 18ppm of zerumbone) or a placebo cream (same cream without zerumbone) for two days. At the same time, the culture medium received 18ppm of zerumbone in a liquid form (or its excipient) to potentiate the effects. A NO stress was later applied for 24 hours using an NO donor (NOC-5) integrated in the culture medium. Finally, the product was again applied on the explants and in the culture medium for two days.
Counting was done using photos (50 photos/case) by filtering the colours.

[7] = system: elastin; test: Elastin synthesis in fibroblasts under NO stress, ELISA; assay type: cell-based; conditions: Homo sapiens, Fibroblast, NHF, compared to the control case following the same NO, read-out: protection of elastin synthesis
[8] = system: Dermatopontin; test: Dermatopontin synthesis in NHF, ELISA; assay type: cell-based, human; conditions: three days
Protocol: (§1) Principle: NHFs were put into contact with the product of the invention for two days (fibromodulin) or three days (dermatopontin). The supernatants were then assayed using ELISA tests. At the same time, the number of cells was quantified using the Hoechst method.

[9] = system: Fibromodulin; test: Fibromodulin synthesis in NHF, ELISA; assay type: cell-based, human; conditions: two days
Protocol: as §1

[10] = system: Human preadipocytes; test: Anti-differentiating effect, intracellular G3PDH activity, human preadipocytes; assay type: cell-based
Protocol: Human preadipocytes were plated and induced to differentiate at confluence in the presence of a cocktail of specific inducers and the evaluated products. After 10 days, the layers were crushed and intracellular G3PDH activity was assayed. A cell quantification test (Hoechst) on the same extracts complements the assay.

[11] = system: Murine 3T3-L1 fibroblasts; test: Anti-differentiating effect on adipocytes, intracellular G3PDH activity, 3T3-L1 line; assay type: cell-based
Protocol: Murine 3T3-L1 fibroblasts were seeded and induced to differentiate into adipocytes for 6 days with specific inducers in the presence of the evaluated products. When mature adipocytes were obtained, layers were crushed and intracellular G3PDH ([…]) activity is measured. A cell quantification test (Hoechst) on the same extracts complements the assay.

[12] = system: Human preadipocytes; test: Triglyceride content after preadipocyte differentiation (glycerol released after lipase); assay type: cell-based; conditions: 10 days
Protocol: Human preadipocytes were plated and induced to differentiate at confluence in the presence of a cocktail of specific inducers and evaluated products. After 10 days, the triglyceride content of the culture was estimated by measuring the released glycerol after the action of a lipase.

With `C/C1=C\CC(C)(C)/C=C/C(=O)/C(C)=C/CC1` [Zerumbone, 2E, 6E, 9E-Humulatrien-8-one] the “[Adiponectin]” value ([1]; 2ppm) was 221.4 +/- 24.5 ng/10^E6 cell, the “[Adiponectin]” value ([1]; 6ppm) was 19.0 +/- 0.6 ng/10^E6 cell and the activation at 2 ppm ([1]; Homo sapiens, 72 h, 2ppm, read-out: [Adiponectin] % Var / control) was 45%. The activation at 6 ppm ([1]; Homo sapiens, 72 h, 6ppm, read-out: [Adiponectin] % Var / control) was 95%, the “[HO-1]” value ([2]; 3ppm, adipocytes in the course of differenciation (10days)) was 51658 +/- 7985 ng/ 10^6 cell and the “[HO-1]” value ([2]; 3ppm, mature adipocytes (48h)) was 70229 +/- 10638 ng/ 10^6 cell. The “[HO-1]” value ([2]; 5ppm, adipocytes in the course of differenciation (10days)) was 67243 +/- 11428 ng/ 10^6 cell, the “[HO-1]” value ([2]; 5ppm, mature adipocytes (48h)) was 96700 +/- 4548 ng/ 10^6 cell and the activation at 3 ppm ([2]; 240 h, 3ppm, adipocytes in the course of differenciation (10days)) was 29%. It also gave an activation at 5 ppm ([2]; 240 h, 5ppm, adipocytes in the course of differenciation (10days)) of 68%, an activation at 3 ppm ([2]; 3ppm, mature adipocytes (48h)) of 142% and an activation at 5 ppm ([2]; 5ppm, mature adipocytes (48h)) of 233%. For the same compound, the activation at 6 ppm [3] was 0%, the “integrity of the dermis under collagenase stress” value [4] was “retains its integrity” and the Cathepsin-S ([5]; 5 ppm) was 290 ± 40 pg/106cell. The inhibition at 5 ppm ([5]; Homo sapiens, Fibroblast, read-out: Cathepsin-S % Variation) was 34%, the Elastin ([6]; cream and culture medium, NO stress (NOC-5) 24 hours) was 2.41 ± 1.40 UCA and the “Elastin % Variation” value ([6]; versus Control NO (Reference 2)) was “+104%; p<0.01”. It also gave an activation at 5 ppm [7] of 179%, a Dermatopontin ([8]; 5 ppm) of 2540 ± 361 ng/106cell and an activation at 5 ppm ([8]; Homo sapiens, 72 h, read-out: Dermatopontin % Variation) of 137%. For the same compound, the Fibromodulin ([9]; 5 ppm) was 51.4 ± 13.4 ng/106cell, the activation at 5 ppm ([9]; Homo sapiens, 48 h, read-out: Fibromodulin % Variation) was 268% and the “[G3PDH]” value ([10]; 0.5ppm, 10 days) was 144 +/- 15 mU/ 10^6 cell. For the same compound, the “[G3PDH]” value ([10]; 1ppm, 10 days) was 106 +/- 14 mU/ 10^6 cell, the “[G3PDH]” value ([10]; 3ppm, 10 days) was 30 +/- 2 mU/ 10^6 cell and the “G3PDH activity and human preadipocytes differentiation” value ([10]; 5 ppm of extract) was “complete inhibition”. The “[G3PDH]” value ([10]; 5ppm, 10 days) was 15 +/- 3 mU/ 10^6 cell, the inhibition at 0.5 ppm ([10]; Homo sapiens, 240 h, 0.5ppm, 10 days, read-out: [G3PDH] % Var / control) was 18% and the inhibition at 1 ppm ([10]; Homo sapiens, 240 h, 1ppm, 10 days, read-out: [G3PDH] % Var / control) was 39%. The inhibition at 3 ppm ([10]; Homo sapiens, 240 h, 3ppm, 10 days, read-out: [G3PDH] % Var / control) was 83%, the inhibition at 5 ppm ([10]; Homo sapiens, 240 h, 5ppm, 10 days, read-out: [G3PDH] % Var / control) was 91% and the “[G3PDH]” value ([11]; 1ppm, differentiation for 6 days) was 304.2 +/- 9.9 mU/ 10^6 cell. The cytotoxicity ([11]; 3T3-L1, tested doses) was “without apparent cytotoxicity”, the “[G3PDH]” value ([11]; 3ppm, differentiation for 6 days) was 79.3 +/- 43.6 mU/ 10^6 cell and the “differentiation of 3T3-L1” value ([11]; 5ppm) was “total inhibition”. The “[G3PDH]” value ([11]; 5ppm, differentiation for 6 days) was 3.4+/-10.3 mU/ 10^6 cell, the inhibition at 1 ppm ([11]; Mus musculus, 3T3-L1, 144 h, 1ppm, differentiation for 6 days, read-out: [G3PDH] % Var / control) was 53% and the inhibition at 3 ppm ([11]; Mus musculus, 3T3-L1, 144 h, 3ppm, differentiation for 6 days, read-out: [G3PDH] % Var / control) was 88%. The inhibition at 5 ppm ([11]; Mus musculus, 3T3-L1, 144 h, 5ppm, differentiation for 6 days, read-out: [G3PDH] % Var / control) was 99%, the “[TG]” value ([12]; 3ppm) was 3562 +/- 233 µ U/ 10^6 cell and the “[TG]” value ([12]; 5ppm) was 2966 +/- 128 µ U/ 10^6 cell. For the same compound, the inhibition at 3 ppm ([12]; Homo sapiens, 240 h, 3ppm, read-out: [TG] % Var / control) was 15% and the inhibition at 5 ppm ([12]; Homo sapiens, 240 h, 5ppm, read-out: [TG] % Var / control) was 29%.
